Laboratory results taken from patent EP1247803A2, “Indolinone compounds suitable for modulation of protein kinases” (Sugen, Inc., priority 1996, dated 1998).

Tests used:
EGFR = molecular target: T1, EGFR (Homo sapiens, UniProt P00533); assay: EGFR ELISA assay (in vitro kinase activity, EGFR captured from A431 cell lysate); assay type: biochemical; parameters: concentration or dose not given beside the values
T1 construct: Add 7 ug A431 cell lysate per well (EGFR source); endogenous in cells; host or cells: A431
Procedure, shortened: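 EGFR from A431 lysate was captured on plates coated with anti-EGFR antibody. Compounds were added 30 min before a 5 min phosphorylation with 3 µM ATP/5 mM MnCl2, which was stopped with 20 mM EDTA. Phosphotyrosine was detected with rabbit anti-phosphotyrosine, then a peroxidase-conjugated secondary and ABTS/H2O2, read at 410 nm.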

PDGF-R = PDGF-R (Homo sapiens, UniProt P09619); assay: PDGF-R ELISA; assay type: cell-based
Excerpt: A PDGF-R ELISA is described in International Patent Publication No. WO 96/40116, published December 19, 1996 by Tang et al.

MET = MET biochemical kinase assay; parameters: species or system human; concentration or dose not given beside the values
Procedure, shortened: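 Capture ELISA: anti-rabbit Fc coat, rabbit anti-MET cytoplasmic domain pAb, lysate MET captured, washed. Compound + kinase buffer (ATP, divalent metals). Readout anti-pTyr-HRP/TMB, colorimetric.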

T1 sequence (P00533 25-1210): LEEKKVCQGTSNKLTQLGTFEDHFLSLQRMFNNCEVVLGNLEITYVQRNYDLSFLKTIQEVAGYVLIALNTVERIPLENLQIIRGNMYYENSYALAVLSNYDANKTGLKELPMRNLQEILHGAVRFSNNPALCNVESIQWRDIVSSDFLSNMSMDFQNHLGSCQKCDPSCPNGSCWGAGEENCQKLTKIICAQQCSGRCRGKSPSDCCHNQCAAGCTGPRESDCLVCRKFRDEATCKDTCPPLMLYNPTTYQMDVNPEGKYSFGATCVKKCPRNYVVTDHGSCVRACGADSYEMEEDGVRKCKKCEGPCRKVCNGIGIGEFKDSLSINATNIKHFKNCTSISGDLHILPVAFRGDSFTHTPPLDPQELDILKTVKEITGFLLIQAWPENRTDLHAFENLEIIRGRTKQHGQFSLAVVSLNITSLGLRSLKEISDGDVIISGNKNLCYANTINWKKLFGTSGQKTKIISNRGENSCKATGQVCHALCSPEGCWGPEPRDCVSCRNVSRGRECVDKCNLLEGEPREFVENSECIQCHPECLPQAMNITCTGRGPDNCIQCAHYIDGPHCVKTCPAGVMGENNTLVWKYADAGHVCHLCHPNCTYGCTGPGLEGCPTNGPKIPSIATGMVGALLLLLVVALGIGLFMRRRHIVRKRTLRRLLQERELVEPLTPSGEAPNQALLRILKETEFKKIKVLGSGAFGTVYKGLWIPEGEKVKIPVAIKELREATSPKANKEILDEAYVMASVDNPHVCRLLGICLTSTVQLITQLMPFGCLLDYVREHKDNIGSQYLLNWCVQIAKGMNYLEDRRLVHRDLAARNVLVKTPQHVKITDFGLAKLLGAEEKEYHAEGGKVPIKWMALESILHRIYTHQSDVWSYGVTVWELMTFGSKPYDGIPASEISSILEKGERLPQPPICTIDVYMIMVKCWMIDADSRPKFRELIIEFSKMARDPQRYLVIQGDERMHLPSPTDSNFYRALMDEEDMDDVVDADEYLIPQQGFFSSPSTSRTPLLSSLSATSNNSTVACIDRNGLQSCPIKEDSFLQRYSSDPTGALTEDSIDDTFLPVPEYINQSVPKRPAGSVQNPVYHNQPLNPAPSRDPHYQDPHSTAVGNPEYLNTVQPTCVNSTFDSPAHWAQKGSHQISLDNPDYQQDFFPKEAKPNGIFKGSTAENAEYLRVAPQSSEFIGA
PDGF-R, sequence (P09619 33-1106, species assumed): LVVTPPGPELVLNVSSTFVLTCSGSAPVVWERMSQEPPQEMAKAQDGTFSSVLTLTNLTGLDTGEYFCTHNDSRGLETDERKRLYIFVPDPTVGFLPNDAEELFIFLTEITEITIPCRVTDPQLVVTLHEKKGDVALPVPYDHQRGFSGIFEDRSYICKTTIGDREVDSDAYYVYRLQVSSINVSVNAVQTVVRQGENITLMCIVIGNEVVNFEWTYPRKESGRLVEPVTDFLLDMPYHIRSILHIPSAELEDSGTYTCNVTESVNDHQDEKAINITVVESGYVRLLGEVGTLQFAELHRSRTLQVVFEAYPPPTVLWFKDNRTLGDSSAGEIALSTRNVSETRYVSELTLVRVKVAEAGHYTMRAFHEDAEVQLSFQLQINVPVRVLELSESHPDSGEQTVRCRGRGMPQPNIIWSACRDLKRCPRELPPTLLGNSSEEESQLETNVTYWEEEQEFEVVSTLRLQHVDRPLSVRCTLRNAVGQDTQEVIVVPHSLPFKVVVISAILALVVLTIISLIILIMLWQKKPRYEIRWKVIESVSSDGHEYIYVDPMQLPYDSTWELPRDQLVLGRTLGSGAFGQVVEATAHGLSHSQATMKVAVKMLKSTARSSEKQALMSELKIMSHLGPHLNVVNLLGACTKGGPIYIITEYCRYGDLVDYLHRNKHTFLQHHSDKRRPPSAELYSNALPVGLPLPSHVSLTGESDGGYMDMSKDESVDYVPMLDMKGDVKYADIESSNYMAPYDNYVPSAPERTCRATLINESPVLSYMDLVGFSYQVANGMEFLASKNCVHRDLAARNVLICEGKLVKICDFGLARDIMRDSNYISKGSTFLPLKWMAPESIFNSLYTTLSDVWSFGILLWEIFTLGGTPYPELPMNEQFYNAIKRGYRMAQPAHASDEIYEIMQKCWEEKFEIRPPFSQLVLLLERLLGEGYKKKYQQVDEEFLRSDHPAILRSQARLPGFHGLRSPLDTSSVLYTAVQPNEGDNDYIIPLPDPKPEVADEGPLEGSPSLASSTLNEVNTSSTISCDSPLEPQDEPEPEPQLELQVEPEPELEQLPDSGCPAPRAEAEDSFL

SMILES: CNS(=O)(=O)c1ccc2c(c1)C(=Cc1cc3c4c(c1O)CCCN4CCC3)C(=O)N2 [10724/D05]
- Biochem EGFR %Inhibition (EGFR): -8.4%
- PDGF Kinase %Inhibition (PDGF-R): 35.6%
- Met Kinase % Inhibition (MET): 36.1%

SMILES: CNS(=O)(=O)c1ccc2c(c1)C(=Cc1cc(C(C)C)c(O)c(C(C)C)c1)C(=O)N2 [10724/D06]
- Biochem EGFR %Inhibition (EGFR): -12.4%
- PDGF Kinase %Inhibition (PDGF-R): 40.4%
- Met Kinase % Inhibition (MET): 23.0%

SMILES: CNS(=O)(=O)c1ccc2c(c1)C(=Cc1cc3ccccc3o1)C(=O)N2 [10724/D07]
- Biochem EGFR %Inhibition (EGFR): 25.6%
- PDGF Kinase %Inhibition (PDGF-R): 7.0%
- Met Kinase % Inhibition (MET): 38.1%

SMILES: CNS(=O)(=O)c1ccc2c(c1)C(=Cc1cccn1-c1ccc(Cl)cc1)C(=O)N2 [10724/D09]
- Biochem EGFR %Inhibition (EGFR): -15.3%
- PDGF Kinase %Inhibition (PDGF-R): 18.9%
- Met Kinase % Inhibition (MET): 16.1%

SMILES: CCc1ccc(C=C2C(=O)Nc3ccc(S(=O)(=O)NC)cc32)o1 [10724/D10]
- Biochem EGFR %Inhibition (EGFR): 12.7%
- PDGF Kinase %Inhibition (PDGF-R): 38.3%
- Met Kinase % Inhibition (MET): 59.6%

SMILES: CNS(=O)(=O)c1ccc2c(c1)C(=Cc1sc3scc(C)c3c1C)C(=O)N2 [10724/D11]
- Biochem EGFR %Inhibition (EGFR): 12.9%
- PDGF Kinase %Inhibition (PDGF-R): 29.3%
- Met Kinase % Inhibition (MET): 20.3%

SMILES: CN(C)c1ccc(C=C2C(=O)Nc3ccc(S(=O)(=O)Nc4ccc(C(F)(F)F)cc4)cc32)c2ccccc12 [10724/E02]
- Biochem EGFR %Inhibition (EGFR): 39.8%
- PDGF Kinase %Inhibition (PDGF-R): -54.2%
- Met Kinase % Inhibition (MET): 55.4%

SMILES: O=C1Nc2ccc(S(=O)(=O)Nc3ccc(C(F)(F)F)cc3)cc2C1=Cc1ccc(O)c([N+](=O)[O-])c1 [10724/E03]
- Biochem EGFR %Inhibition (EGFR): 33.1%
- PDGF Kinase %Inhibition (PDGF-R): 14.7%
- Met Kinase % Inhibition (MET): 85.8%

SMILES: O=C1Nc2ccc(S(=O)(=O)Nc3ccc(C(F)(F)F)cc3)cc2C1=Cc1ccc([N+](=O)[O-])c(O)c1 [10724/E04]
- Biochem EGFR %Inhibition (EGFR): 8.9%
- PDGF Kinase %Inhibition (PDGF-R): -32.6%
- Met Kinase % Inhibition (MET): 93.3%

SMILES: O=C1Nc2ccc(S(=O)(=O)Nc3ccc(C(F)(F)F)cc3)cc2C1=Cc1cc2c3c(c1O)CCCN3CCC2 [10724/E05]
- Biochem EGFR %Inhibition (EGFR): 0.5%
- PDGF Kinase %Inhibition (PDGF-R): -7.6%
- Met Kinase % Inhibition (MET): 70.3%

SMILES: CC(C)c1cc(C=C2C(=O)Nc3ccc(S(=O)(=O)Nc4ccc(C(F)(F)F)cc4)cc32)cc(C(C)C)c1O [10724/E06]
- Biochem EGFR %Inhibition (EGFR): 1.6%
- PDGF Kinase %Inhibition (PDGF-R): 6.3%
- Met Kinase % Inhibition (MET): 25.8%

SMILES: O=C1Nc2ccc(S(=O)(=O)Nc3ccc(C(F)(F)F)cc3)cc2C1=Cc1cc2ccccc2o1 [10724/E07]
- Biochem EGFR %Inhibition (EGFR): 9.4%
- PDGF Kinase %Inhibition (PDGF-R): 0.1%
- Met Kinase % Inhibition (MET): 46.8%

SMILES: O=C1Nc2ccc(S(=O)(=O)Nc3ccc(C(F)(F)F)cc3)cc2C1=Cc1cccn1-c1ccc(Cl)cc1 [10724/E09]
- Biochem EGFR %Inhibition (EGFR): 6.3%
- PDGF Kinase %Inhibition (PDGF-R): 21.0%
- Met Kinase % Inhibition (MET): 27.0%

SMILES: CCc1ccc(C=C2C(=O)Nc3ccc(S(=O)(=O)Nc4ccc(C(F)(F)F)cc4)cc32)o1 [10724/E10]
- Biochem EGFR %Inhibition (EGFR): 41.4%
- PDGF Kinase %Inhibition (PDGF-R): 34.9%
- Met Kinase % Inhibition (MET): 84.0%

SMILES: Cc1csc2sc(C=C3C(=O)Nc4ccc(S(=O)(=O)Nc5ccc(C(F)(F)F)cc5)cc43)c(C)c12 [10724/E11]
- Biochem EGFR %Inhibition (EGFR): -26.8%
- PDGF Kinase %Inhibition (PDGF-R): 5.0%
- Met Kinase % Inhibition (MET): 39.3%

SMILES: CN(C)c1ccc(C=C2C(=O)Nc3ccc(CCCl)cc32)c2ccccc12 [10724/G02]
- Biochem EGFR %Inhibition (EGFR): 42.5%
- PDGF Kinase %Inhibition (PDGF-R): -7.6%
- Met Kinase % Inhibition (MET): 44.9%

SMILES: O=C1Nc2ccc(CCCl)cc2C1=Cc1ccc(O)c([N+](=O)[O-])c1 [10724/G03]
- Biochem EGFR %Inhibition (EGFR): 7.8%
- PDGF Kinase %Inhibition (PDGF-R): -2.7%
- Met Kinase % Inhibition (MET): 36.7%

SMILES: O=C1Nc2ccc(CCCl)cc2C1=Cc1ccc([N+](=O)[O-])c(O)c1 [10724/G04]
- Biochem EGFR %Inhibition (EGFR): 12.9%
- PDGF Kinase %Inhibition (PDGF-R): -12.4%
- Met Kinase % Inhibition (MET): 71.0%

SMILES: O=C1Nc2ccc(CCCl)cc2C1=Cc1cc2c3c(c1O)CCCN3CCC2 [10724/G05]
- Biochem EGFR %Inhibition (EGFR): -20.8%
- PDGF Kinase %Inhibition (PDGF-R): -10.3%
- Met Kinase % Inhibition (MET): 61.0%

SMILES: CC(C)c1cc(C=C2C(=O)Nc3ccc(CCCl)cc32)cc(C(C)C)c1O [10724/G06]
- Biochem EGFR %Inhibition (EGFR): 3.2%
- PDGF Kinase %Inhibition (PDGF-R): -6.9%
- Met Kinase % Inhibition (MET): 20.3%

SMILES: O=C1Nc2ccc(CCCl)cc2C1=Cc1cc2ccccc2o1 [10724/G07]
- Biochem EGFR %Inhibition (EGFR): -11.7%
- PDGF Kinase %Inhibition (PDGF-R): -41.6%
- Met Kinase % Inhibition (MET): 2.3%

SMILES: O=C1Nc2ccc(CCCl)cc2C1=Cc1cccn1-c1ccc(Cl)cc1 [10724/G09]
- Biochem EGFR %Inhibition (EGFR): -21.7%
- PDGF Kinase %Inhibition (PDGF-R): -18.0%
- Met Kinase % Inhibition (MET): -2.8%

SMILES: CCc1ccc(C=C2C(=O)Nc3ccc(CCCl)cc32)o1 [10724/G10]
- Biochem EGFR %Inhibition (EGFR): -10.6%
- PDGF Kinase %Inhibition (PDGF-R): -15.9%
- Met Kinase % Inhibition (MET): 62.8%

SMILES: Cc1csc2sc(C=C3C(=O)Nc4ccc(CCCl)cc43)c(C)c12 [10724/G11]
- Biochem EGFR %Inhibition (EGFR): -29.5%
- PDGF Kinase %Inhibition (PDGF-R): -29.1%
- Met Kinase % Inhibition (MET): 11.2%

SMILES: O=C1Nc2c(Br)cc(Br)cc2C1=Cc1sccc1Br [10725/A02]
- Biochem EGFR %Inhibition (EGFR): 3.9%
- PDGF Kinase %Inhibition (PDGF-R): -14.2%
- Met Kinase % Inhibition (MET): 46.6%

SMILES: COc1ccc(Br)c(C=C2C(=O)Nc3c(Br)cc(Br)cc32)c1O [10725/A03]
- Biochem EGFR %Inhibition (EGFR): -38.2%
- PDGF Kinase %Inhibition (PDGF-R): 5.9%
- Met Kinase % Inhibition (MET): 68.0%

SMILES: Cc1cc(C=C2C(=O)Nc3c(Br)cc(Br)cc32)[nH]n1 [10725/A05]
- Biochem EGFR %Inhibition (EGFR): 7.9%
- PDGF Kinase %Inhibition (PDGF-R): 13.1%
- Met Kinase % Inhibition (MET): 47.5%

SMILES: COc1cc(C)cc(O)c1C=C1C(=O)Nc2c(Br)cc(Br)cc21 [10725/A06]
- Biochem EGFR %Inhibition (EGFR): -9.5%
- PDGF Kinase %Inhibition (PDGF-R): 40.9%
- Met Kinase % Inhibition (MET): 71.7%

SMILES: O=CN1CCN(c2ccc(C=C3C(=O)Nc4c(Br)cc(Br)cc43)cc2)CC1 [10725/A07]
- Biochem EGFR %Inhibition (EGFR): 18.2%
- PDGF Kinase %Inhibition (PDGF-R): 17.9%
- Met Kinase % Inhibition (MET): 59.3%

SMILES: O=C1Nc2c(Br)cc(Br)cc2C1=Cc1ccc(N2CCOCC2)cc1 [10725/A08]
- Biochem EGFR %Inhibition (EGFR): 10.9%
- PDGF Kinase %Inhibition (PDGF-R): 14.1%
- Met Kinase % Inhibition (MET): 45.3%

SMILES: COC(=O)Cc1c(Cl)[nH]c(C=C2C(=O)Nc3c(Br)cc(Br)c(C)c32)c1C(=O)OC [10725/A09]
- Biochem EGFR %Inhibition (EGFR): 4.9%
- PDGF Kinase %Inhibition (PDGF-R): 29.4%
- Met Kinase % Inhibition (MET): 44.3%

SMILES: Cc1c(Br)cc(Br)c2c1C(=Cc1c(Br)cnn1-c1ccc(Cl)cc1)C(=O)N2 [10725/A10]
- Biochem EGFR %Inhibition (EGFR): 14.0%
- PDGF Kinase %Inhibition (PDGF-R): 33.7%
- Met Kinase % Inhibition (MET): 43.2%

SMILES: Cc1c(Br)cc(Br)c2c1C(=Cc1c[nH]cn1)C(=O)N2 [10725/A11]
- Biochem EGFR %Inhibition (EGFR): 14.6%
- PDGF Kinase %Inhibition (PDGF-R): 18.9%
- Met Kinase % Inhibition (MET): 49.1%

SMILES: O=C1Nc2ccc(I)cc2C1=Cc1sccc1Br [10725/B02]
- Biochem EGFR %Inhibition (EGFR): 2.5%
- PDGF Kinase %Inhibition (PDGF-R): -7.5%
- Met Kinase % Inhibition (MET): 66.9%

SMILES: COc1ccc(Br)c(C=C2C(=O)Nc3ccc(I)cc32)c1O [10725/B03]
- Biochem EGFR %Inhibition (EGFR): -15.3%
- PDGF Kinase %Inhibition (PDGF-R): 7.8%
- Met Kinase % Inhibition (MET): 70.8%

SMILES: Cc1cc(C=C2C(=O)Nc3ccc(I)cc32)[nH]n1 [10725/B05]
- Biochem EGFR %Inhibition (EGFR): 20.4%
- PDGF Kinase %Inhibition (PDGF-R): 44.7%
- Met Kinase % Inhibition (MET): 68.3%
